Entries after “also recorded” stand apart in the source; their conditions may differ.

The test system of data set [1] is MCF7 cells. Description: Mammosphere formation assay (MFE, CSC propagation) in MCF7 cells. Type of data set: cell-based, human.
Description: The data represents mammosphere counts after exposure to a compound, as a percentage of a control. The compounds were tested at concentrations of 1.5 μM, 3 μM, 6 μM, and 12 μM.
Mammosphere Formation Assay: A single cell suspension was prepared using enzymatic (1× Trypsin-EDTA, Sigma Aldrich, #T3924), and manual disaggregation (25 gauge needle). Cells were plated at a density of 500 cells/cm2 in mammosphere medium (DMEM-F12+B27+20 ng/ml EGF+PenStrep) under non-adherent conditions, in culture dishes pre-coated with (2-hydroxyethylmethacrylate) (poly-HEMA, Sigma, #P3932), called “tumor-sphere plates”. Vehicle alone (DMSO) control cells were processed in parallel. Cells were grown for 5 days and maintained in a humidified incubator at 37° C. After 5 days of culture, 3D mammospheres >50 μm were counted using an eye piece (“graticule”), and the percentage of cells plated which formed spheres was calculated and is referred to as percent mammosphere formation (MFE, and was normalized to one (1=100% MSF).
Data set [2] deals with senescent fibroblasts. The settings on record: azithromycin by itself; cited from earlier work.
Data set [3] concerns CSCs. Description: Inhibition of CSC propagation / CSC inhibition activity (assay not specified). Type of data set: cell-based.
Data set [4] deals with breast cancer tumor samples. Briefly: ABC trial pilot study: CSC markers in tumor samples after oral doxycycline. Type of data set: in vivo, human. How it is done:
Doxycycline impacts cancer growth through inhibition of CSC propagation with an IC-50 between 2-to-10 μM. The Antibiotic for Breast Cancer (ABC) trial was conducted at The University of Pisa Hospital. The ABC trial aimed to assess the anti-proliferative and anti-CSC mechanistic actions of doxycycline in early breast cancer patients. […] A pilot study of the ABC trial confirmed that doxycycline treatment successfully decreases the expression of CSC markers in breast cancer tumor samples. […] This represents a 90% positive response rate.

Data set [5] deals with MCF7 cells. Description: Metabolic flux analysis (Seahorse XFe96, OCR and ECAR). Type of data set: cell-based, human.
Description: Metabolic Flux Analysis: Real-time oxygen consumption rates (OCR) and extracellular acidification rates (ECAR) rates in MCF7 cells were determined using the Seahorse Extracellular Flux (XFe96) analyzer (Seahorse Bioscience, USA). Briefly, 1.5×10^4 cells per well were seeded into XFe96 well cell culture plates, and incubated overnight to allow cell attachment. Then, cells were treated with antibiotics for 72 h. Vehicle-alone control cells were processed in parallel. After 72 hours of incubation, cells were washed in pre-warmed XF assay media (or for OCR measurement, XF assay media supplemented with 10 mM glucose, 1 mM Pyruvate, 2 mM L-glutamine and adjusted at 7.4 pH). Cells were then maintained in 175 μL/well of XF assay media at 37° C., in a non-CO2 incubator for 1 hour. During the incubation time, we loaded 25 μL of 80 mM glucose, 9 μM oligomycin, and 1M 2-deoxyglucose (for ECAR measurement) or 10 μM oligomycin, 9 μM FCCP, 10 μM rotenone, 10 μM antimycin A (for OCR measurement), in XF assay media into the injection ports in the XFe96 sensor cartridge. Measurements were normalized by protein content (Bradford assay). Data sets were analyzed using XFe96 software and GraphPad Prism software, using one-way ANOVA and Student's t-test calculations. All experiments were performed in quintuplicate, three times independently.
In data set [6] the test system is rat heart. The settings on record: Vitamin C alone, hypoxia, previous studies; cited from earlier work.
The conditions of data set [7]: oral administration; cited from earlier work.
For data set [8], the system named is U937 cells. The conditions noted are these: U937 cells incubated 15 minutes in media containing 3 μM Vitamin C; cited from earlier work.
Data set [9] has as its system BJ cells. Description: Cell viability, bulk BJ cells. In kind it is cell-based. The settings on record: range of concentrations up to 20 μM. An excerpt: (§1) Embodiments of therapeutic agents conjugated with targeting signals have shown less toxicity in bulk cancer cells and normal fibroblasts compared to unconjugated therapeutic agents. For example, FIGS. 17A and 17B show cell viability data for doxycycline and the doxycycline-myristate conjugate shown as compound [1], for bulk MCF7 cells and bulk BJ cells, respectively. The data represents cell viability expressed as a percentage of a control. […] Similar behavior has been seen in other therapeutic agents conjugated with targeting signals.

In data set [10] the test system is MCF7 cells. Description: Cellular retention by green auto-fluorescence. In kind it is cell-based, human. The conditions noted are these: 10 μM, 72 hours, washed with PBS. How it is done:
FIGS. 16A-16C are images comparing the cellular retention of the doxycycline-myristate conjugate, to unconjugated doxycycline. MCF7 cells were cultured in tissue culture media in the presence of either therapeutic agent (i.e., the doxycycline-myristate conjugate or unconjugated doxycycline), at a concentration of 10 μM, for 72 hours. Then, the cells were washed with PBS and any therapeutic agent retained within the cells was visualized by green auto-fluorescence, from the excitation of the tetracycline ring structure. Control cells were incubated with vehicle-alone. […] The original color in the images has been inverted, to […], and the darker regions of FIG. 16B indicate increased cellular retention of the conjugated therapeutic agent.

In data set [11] the test system is MCF7 cells. Briefly: Cell viability, bulk MCF7 cells. The conditions noted are these: range of concentrations up to 20 μM. Type of data set: cell-based, human.
Description: as §1

The mark [12] stands for this setting: breast cancer patients treated with doxycycline.
Where [13] appears, read: MCF7 monolayers pre-treated 3-days, doxycycline 1 μM, azithromycin 1 μM, Vitamin C 250 μM as applicable, vs control.

Consider `CC[C@H]1OC(=O)[C@H](C)[C@@H](O[C@H]2C[C@@](C)(OC)[C@@H](O)[C@H](C)O2)[C@H](C)[C@@H](O[C@@H]2O[C@H](C)C[C@H](N(C)C)[C@H]2O)[C@](C)(O)C[C@@H](C)CN(C)[C@H](C)[C@@H](O)[C@]1(C)O` [azithromycin], for which, in data set [1] (drug alone at low concentrations (0.1 μM and 1 μM)), the “inhibition of mammosphere formation” value is on record as “little or no effect”. Further, the “efficiency of senolytic activity (removal of senescent fibroblasts)” value in data set [2] is on record as roughly 97%.
Consider `CCCCCCCCCCCCCC(=O)N(C)[C@H]1C[C@@H](C)O[C@@H](O[C@@H]2[C@@H](C)[C@H](O[C@H]3C[C@@](C)(OC)[C@@H](O)[C@H](C)O3)[C@@H](C)C(=O)O[C@H](CC)[C@@](C)(O)[C@H](O)[C@@H](C)N(C)C[C@H](C)C[C@@]2(C)O)[C@@H]1O` [compound [15]], for which the “potency and selectivity for CSCs compared to azithromycin alone” value in data set [3] was “improved potency and selectivity”.
Consider `C[C@H]1c2cccc(O)c2C(=O)C2=C(O)[C@]3(O)C(=O)C(C(N)=O)=C(O)[C@@H](N(C)C)[C@@H]3[C@@H](O)[C@@H]21` [doxycycline], for which, in data set [4] (setting [12]), the “positive response rate (CD44)” value was determined as 90% and the “rise in CD44, one patient” value is 15%. The “decrease in the stemness marker CD44, post-doxycycline vs pre-doxycycline tumor samples” value in [4] (early breast cancer patients, short-term pre-operative oral doxycycline) came out at 40%.
`O=C1O[C@H]([C@@H](O)CO)C(O)=C1O` [Vit C, Ascorbic Acid]: in [5] (setting [13]), the “ATP production / ATP levels” value is given as “significantly increased”, the basal respiration entry is listed as “significantly increased”, the “glycolysis (ECAR)” value is recorded as “significantly increased” and the glycolytic reserve entry is recorded as “significantly increased”. Also, in data set [5] (setting [13]), the glycolytic reserve capacity entry is given as “decreasing”, the maximal respiration result is recorded as “significantly increased” and the “oxidative mitochondrial metabolism (OCR)” value is on record as “significantly increased; also recorded: increases”. Moreover, the “increase of mitochondrial ATP production” value in [5] (Vitamin C alone, MCF7 cells) is “up to 2 fold”. Further, in [6], the “increase of mitochondrial ATP production” value is “up to 1.5 fold”. For the same molecule, the “peak Vitamin C concentration in blood/serum/plasma” value in [7] was “about 250”. In data set [8], the “Vitamin C level reached in mitochondria” value is 5 mM.
As for `CCCCCCCCCCCCCC(=O)Nc1ccc2c(c1O)C(=O)C1=C(O)[C@]3(O)C(=O)C(C(N)=O)=C(O)[C@@H](N(C)C)C3[C@@H](O)C1[C@H]2C` (stereo partly drawn) [doxycycline-myristate conjugate, (4S,5S,6R,12aS)-4-(dimethylamino)-3,5,10,12,12a-pentahydroxy-6-methyl-1,11-dioxo-9-(tetradecanoylamino)-4a,5,5a,6-tetrahydro-4H-tetracene-2-carboxamide], the “potency in mammosphere assay compared with unconjugated doxycycline” value in data set [1] (MCF7, 1.5 μM, 3 μM, 6 μM and 12 μM, mammosphere counts as percentage of control) is recorded as “more potent”. Besides, the “times more potent than doxycycline for inhibiting CSC propagation” value in data set [1] (from IC50 values, MCF7 mammosphere assay) was “over 5 times”. Moreover, the “toxicity (cell viability as percentage of control) compared with doxycycline” value in data set [9] and in data set [11] was “less toxic” throughout. Besides, the “cellular retention compared to doxycycline alone” value in data set [10] is “significantly improved cellular retention”. The “CSC inhibition activity compared with the unconjugated antibiotic” value in data set [3] (fatty acid conjugates (myristate where stated)) is reported as “better CSC inhibitory properties”.

The record behind these values is patent publication US20220040316A1, “TRIPLE COMBINATION THERAPIES FOR TARGETING MITOCHONDRIA AND KILLING CANCER STEM CELLS” (LUNELLA BIOTECH, INC., priority 2018, published 2022).
